Measured values: patent publication US9556158B2, “Fungicidal 3-[(pyridin-2-ylmethoxyimino)(phenyl)methyl]-2-substituted-1,2,4-oxadiazol-5(2H)-one derivatives” (BAYER INTELLECTUAL PROPERTY GMBH, priority 2011, dated 2017)

Experiments:
Phytophthora infestans = assay: whole plant or invertebrate; format: in vivo; settings: in Solanum lycopersicum, 120 h, read-out: % efficacy
Pyrenophora teres = assay: Example D: in vivo preventive test on Pyrenophora teres (net blotch on barley); settings: 500 ppm, preventive spray on barley plants, contamination after 24 hours, grading 14 days after contamination vs control plants
Method: In Vivo Preventive Test on Pyrenophora teres (Net Blotch on Barley)
The active ingredients tested are prepared by homogenization in a mixture of acetone/tween/DMSO, and then diluted with water to obtain the desired active material concentration.
Barley plants (“Plaisant” variety), sown in starter cups on a 50/50 peat soil-pozzolana substrate and grown at 22° C., are treated at the 1-leaf stage (10 cm height) by spraying with the active ingredient prepared as described above. Plants, used as controls, are treated with the mixture of acetone/tween/DMSO/water not containing the active material.
After 24 hours, the plants are contaminated by spraying the leaves with an aqueous suspension of Pyrenophora teres spores (12 000 spores per ml). The spores are collected from a 12-day-old culture. The contaminated barley plants are incubated for 48 hours at 20° C. and at 100% relative humidity, and then for 12 days at 20° C. at 70-80% relative humidity.
Grading (% of efficacy) is carried out 14 days after the contamination, in comparison with the control plants.
Under these conditions, good (at least 70%) or total protection is observed at a dose of 500 ppm with the following compounds: […]

[1] = pH 2.7, LogP, HPLC on reversed phase columns, pH 2.7, 0.1% formic acid in water / acetonitrile gradient

COc1cccc(C(=NOCc2cccc(NC(=O)COc3ccccc3)n2)c2nc(=O)o[nH]2)c1 [Example 45]
pest or weed control at 500 ppm (Phytophthora infestans): 88%
% efficacy (Pyrenophora teres): 71%
chromatographic logP [1]: 3.17
